These results are taken from PMC9609098, “Xanthine Oxidase Inhibitory Activity and Chemical Composition of Pistacia chinensis Leaf Essential Oil” (Pharmaceutics, 2022).

Assay [1] addresses T1, xanthine oxidase (Homo sapiens, UniProt P47989). The conditions noted are these: cited from earlier work.
In assay [2] the target is xanthine oxidase (EC 1.1.3.22) (Homo sapiens, UniProt P47989). Briefly: biochemical. Type of assay: biochemical. The conditions noted are these: for IC50: read-out: IC50 against xanthine oxidase (converted). As to the method: Xanthine oxidase inhibitory activity of specimens was evaluated by using in vitro spectrophotometric analysis. Both hypoxanthine and xanthine were used as the substrate in the assay, respectively. We added 117 µL of potassium phosphate buffer (50 mM, pH 7.8), 3 µL of specimen solution, and 60 µL of 0.025 unit/mL xanthine oxidase (EC 1.1.3.22) and mixed well in a 96-well microplate, and the mixture was incubated for 10 min at room temperature (25 °C). We added 100 µL of 0.15 mM substrate (hypoxanthine/xanthine) into the well, and the solution was incubated in the dark for 30 min at 37 °C. Then, 20 µL of 1 N HCl was added to stop the reaction. Absorbance at 290 nm of each well was measured using an ELISA (enzyme-linked immunosorbent assay) microplate reader (SPECTROstar Nano, BMG LABTECH, Offenburg, Germany) after incubation. […] All the experiments were performed in triplicate. Inhibition of the xanthine oxidase inhibitory activity was determined by the following formula: Inhibition (%) = [(Acontrol − Acontrol’s blank) − (Asample − Asample’s blank)/(Acontrol − Acontrol’s blank)] × 100. The IC50, half maximal inhibitory concentration, was calculated from the concentration-response curve of the specimen.
Chain of xanthine oxidase (EC 1.1.3.22) (P47989 whole entry, species assumed): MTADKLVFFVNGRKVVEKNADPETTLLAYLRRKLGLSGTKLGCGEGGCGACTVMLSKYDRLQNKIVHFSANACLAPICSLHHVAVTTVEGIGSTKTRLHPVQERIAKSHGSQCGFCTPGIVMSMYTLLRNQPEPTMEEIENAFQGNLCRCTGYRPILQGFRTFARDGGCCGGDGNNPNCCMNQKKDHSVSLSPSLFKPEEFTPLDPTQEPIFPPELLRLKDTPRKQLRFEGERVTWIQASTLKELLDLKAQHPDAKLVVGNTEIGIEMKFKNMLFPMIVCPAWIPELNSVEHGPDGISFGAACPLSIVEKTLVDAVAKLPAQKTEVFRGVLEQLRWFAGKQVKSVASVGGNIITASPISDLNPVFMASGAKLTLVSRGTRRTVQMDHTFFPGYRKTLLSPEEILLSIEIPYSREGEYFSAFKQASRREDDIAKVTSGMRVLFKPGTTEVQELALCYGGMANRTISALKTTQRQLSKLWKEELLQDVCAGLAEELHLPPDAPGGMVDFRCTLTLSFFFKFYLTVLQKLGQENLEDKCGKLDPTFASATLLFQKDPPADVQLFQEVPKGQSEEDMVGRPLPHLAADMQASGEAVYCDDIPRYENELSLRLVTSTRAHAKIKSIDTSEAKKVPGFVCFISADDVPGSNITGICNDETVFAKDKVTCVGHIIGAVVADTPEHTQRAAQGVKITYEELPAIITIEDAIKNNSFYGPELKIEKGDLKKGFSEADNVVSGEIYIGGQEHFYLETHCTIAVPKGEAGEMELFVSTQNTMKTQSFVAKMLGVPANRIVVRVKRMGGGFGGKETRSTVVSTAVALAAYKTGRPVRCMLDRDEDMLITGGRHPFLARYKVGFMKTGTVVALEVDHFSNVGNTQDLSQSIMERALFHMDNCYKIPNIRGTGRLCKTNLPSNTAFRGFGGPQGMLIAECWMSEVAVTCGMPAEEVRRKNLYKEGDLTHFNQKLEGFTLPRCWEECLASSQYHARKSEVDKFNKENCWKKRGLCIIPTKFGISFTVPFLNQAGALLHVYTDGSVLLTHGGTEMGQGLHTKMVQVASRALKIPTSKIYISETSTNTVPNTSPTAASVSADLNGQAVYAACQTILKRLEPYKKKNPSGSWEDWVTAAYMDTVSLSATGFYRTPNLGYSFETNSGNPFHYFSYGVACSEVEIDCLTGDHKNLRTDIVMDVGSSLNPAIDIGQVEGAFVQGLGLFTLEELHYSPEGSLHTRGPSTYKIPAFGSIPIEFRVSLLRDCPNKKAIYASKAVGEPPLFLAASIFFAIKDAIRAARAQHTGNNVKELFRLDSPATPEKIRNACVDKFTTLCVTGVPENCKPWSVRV

Assay [3] concerns the target T1, xanthine oxidase. The following applies: cited from earlier work. The source holds these as a separate data set.
Assay [4] addresses T1, xanthine oxidase. Briefly: Enzyme kinetic study (Lineweaver–Burk plot). The following applies: for Inhibition type on xanthine oxidase: both substrates, hypoxanthine and xanthine.
[5] abbreviates: Hypoxanthine as the substrate, read-out: IC50 xanthine oxidase inhibition (converted).

Structures are written as SMILES. In brackets after ≈: the same amount, converted by molar mass. Read-outs that look alike come from different tables or passages of the source.

T1 sequence (P47989 whole entry, species assumed): as above

Take `COC(=O)c1cc(C(=O)O)c[nH]1` [2-metyl ester-1H-pyrrole-4-carboxilyc acid]: the “IC50 xanthine oxidase inhibition” value in assay [1] (Xanthine as the substrate) is 48.86 µg/mL (≈ 289 µM).

Broadly, the IC50 is the point on the concentration scale where inhibition reaches its midpoint. For `CC1=CCC2C(C1)C2(C)C` (stereo not shown) [3-Carene, 3-carene], the concentration for half-maximal inhibition (IC50) in assay [2] (Hypoxanthine as the substrate) was 810 µM. Further, the “activity against xanthine oxidase (in words)” value in assay [2] (Xanthine as the substrate) is given as “did not display activity”.

With `Oc1ncnc2[nH]ncc12` [Allopurinol, reference compound], the “Inhibition type against xanthine oxidase” value in assay [3] is “competitive-type inhibition”. Further, the “Inhibition Type” value in assay [4] (Hypoxanthine as the substrate) and in assay [4] (Xanthine as the substrate) was “Competitive” in each case. Further, the Vmax in assay [4] (Hypoxanthine substrate, inhibitor 0.313 μg/mL) came to 0.00025; in assay [4] (Hypoxanthine substrate, inhibitor 0.625 μg/mL) it was 0.00024; in assay [4] (Hypoxanthine substrate, inhibitor 1.250 μg/mL), 0.00024; in assay [4] (Hypoxanthine substrate, inhibitor 2.500 μg/mL) it was 0.00024; in assay [4] (Xanthine substrate, inhibitor 0.313 μg/mL), 0.00026; in assay [4] (Xanthine substrate, inhibitor 0.625 μg/mL), 0.00026. Besides, the Vmax in assay [4] (Xanthine substrate, inhibitor 1.250 μg/mL) was 0.00025; in assay [4] (Xanthine substrate, inhibitor 2.500 μg/mL), 0.00026. In addition, the “Inhibition type on xanthine oxidase” value in assay [4] is on record as “competitive”.

On to `C=C(C)[C@H]1CC=C(C)CC1` [Limonene, limonene], for which the “IC50 against xanthine oxidase” value in assay [2] (Hypoxanthine as the substrate) was 37.69 ± 2.52 µg/mL (≈ 277 µM); in assay [2] (Xanthine as the substrate), 48.04 ± 0.78 µg/mL (≈ 353 µM). Moreover, the IC50 in assay [2] (Hypoxanthine as the substrate) is 280 µM; in assay [2] (Xanthine as the substrate), 350 µM. The “Inhibition Type” value in assay [4] (Hypoxanthine as the substrate) and in assay [4] (Xanthine as the substrate) was “Mixed” throughout. The Vmax in assay [4] (Hypoxanthine substrate, inhibitor 40 μg/mL) is on record as 0.00027; in assay [4] (Hypoxanthine substrate, inhibitor 50 μg/mL), 0.00025; in assay [4] (Hypoxanthine substrate, inhibitor 100 μg/mL) it was 0.00024; in assay [4] (Hypoxanthine substrate, inhibitor 200 μg/mL) it was 0.00023; in assay [4] (Xanthine substrate, inhibitor 40 μg/mL), 0.00029; in assay [4] (Xanthine substrate, inhibitor 50 μg/mL), 0.00026. For the same compound, the Vmax in assay [4] (Xanthine substrate, inhibitor 100 μg/mL) is on record as 0.00022; in assay [4] (Xanthine substrate, inhibitor 200 μg/mL), 0.0002. Further, the “Inhibition type on xanthine oxidase” value in assay [4] is on record as “mixed-type inhibitor”.

Regarding `O=c1cc(-c2ccc(O)cc2)oc2cc(O)cc(O)c12` [apigenin], the IC50 in assay [1] (setting [5]) is 130 µM.

`O=P(O)(O)O[C@H]1[C@H](OP(=O)(O)O)[C@@H](OP(=O)(O)O)[C@H](OP(=O)(O)O)[C@@H](OP(=O)(O)O)[C@H]1OP(=O)(O)O` [phytic acid]: the IC50 in assay [1] (Xanthine as the substrate, read-out: IC50 (inhibition of the formation of uric acid)) was roughly 30000 µM.

For `O=c1c(O)c(-c2ccc(O)c(O)c2)oc2cc(O)cc(O)c12` [quercetin], the “Inhibition type against xanthine oxidase” value in assay [3] is “mixed type”.

With `C[C@@H]1O[C@@H](OC[C@H]2O[C@@H](Oc3c(-c4ccc(O)c(O)c4)oc4cc(O)cc(O)c4c3=O)[C@H](O)[C@@H](O)[C@@H]2O)[C@H](O)[C@H](O)[C@H]1O` [rutin], the IC50 in assay [1] (setting [5]) is 99.9 µM.
